Patent US12714698B2, “Compositions and methods for treating or preventing dermal disorders” (Drexel University, priority 2015, dated 2026)

Test system: human cardiac fibroblasts
Experiment: Immunoblot of senescence markers (p53, p21, p16, lamin B1, IL-6)
Format: cell-based
Description: Cell culture experiments utilizing NRTIs were of the following design. Cultures of either human lung or cardiac fibroblasts were cultivated according to standard culture protocols for these cells (Cristofalo, et al., Journal of Tissue Culture Methods 1980, 6:117-121). Parallel sets of cultures were maintained in normal growth media or in normal growth media with the addition of 1 nM rapamycin. Cultures were maintained with 1 nM rapamycin (Enzo Biologicals) for two weeks before exposure to NRTIs. Cell cultures were exposed to NRTIs at indicated concentrations in individual experiments (generally 10-20 μg/ml) for 7 days, with a change of media and fresh NRTIs at day 4. Mitochondrial measurements, bioanalyzer measurements, immunoblotting for protein expression and phosphorylation status, and assays for senescence were performed at the end of this 7-day period.
Cell culture reagents were from Cellgro, unless indicated. WI-38 fetal-lung primary human fibroblasts or human cardiac fibroblasts were grown in MEM supplemented with 10% fetal bovine serum, 1% L-glutamine, MEM vitamins, and MEM non-essential amino acids. Cells were maintained in a 37° C. in 5% CO2 incubator. For treatment studies, cells were treated with 1 nM rapamycin (Enzo Biologicals) for two weeks before treatment with NRTIs. Cells were maintained by trypsinization and reseeding at a cell density of 1×10^4/cm^2 every 7 to 10 days. Emtricitabine (FTC) and tenofovir disoproxil fumarate (TDF) were kindly provided by the NIH AIDS Research & Reference Reagent program. During the 7-day exposure to the NRTIs, the pharmacologic inhibitors PD98059 (10 μM, Santa Cruz Biotechnologies), BI-D1870, GW5074, and SB203580 (10 μM, Enzo Biologicals) were added to the culture medium either during the final 48 hours or for the final 2 hours depending upon the experiment. During the 7-day exposure to NRTIs, Trolox (500 μM) and N-acetylcysteine (100 μM, Acros Organics) were added every other day. Mito-Q (20 nM) and TPP (20 nM) were kindly provided by Dr. Brett Kaufmann at the University of Pennsylvania School of Veterinary Medicine. Vector and mt-catalase adenoviruses (MOI's 25, 50, and 75) were purchased from Gene Transfer Vector Core from the University of Iowa.
Cell protein extracts were prepared by extracting with radioimmunoprecipitation assay (RIPA) buffer containing a protease inhibitor cocktail (Sigma-Aldrich) and phosphatase inhibitors, NaF and sodium orthovanadate. Protein concentration was quantified using a bicinchoninic acid (BCA) assay (Pierce Biotechnology). […] For co-immunoprecipitation, cell protein extracts were prepared in HNTG buffer containing a protease inhibitor cocktail and quantified using BCA assay. […]

## CO[C@H]1C[C@@H]2CC[C@@H](C)[C@@](O)(O2)C(=O)C(=O)N2CCCC[C@H]2C(=O)O[C@H]([C@H](C)C[C@@H]2CC[C@@H](O)[C@H](OC)C2)CC(=O)[C@H](C)/C=C(\C)[C@@H](O)[C@@H](OC)C(=O)[C@H](C)C[C@H](C)/C=C/C=C/C=C/1C [rapamycin]
Rapamycin (1 nM)
  NRTI-induced decrease of lamin B1: prevented this decrease
Rapamycin treated cells (1 nM)
  levels of IL-6 following exposure to NRTIs: no increase
  levels of p53, p21 and p16 on NRTI exposure: did not increase
